Assay results as given in patent US6545170B2, “2-amino-5, 6 heptenoic acid derivatives useful as nitric oxide synthase inhibitors” (Pharmacia Corporation, priority 2000, dated 2003).
Where a name gives a salt, the structure may show the parent alone.

Experiments:
[1] = tested on: inducible nitric oxide synthase activity (plasma nitrite/nitrate levels); experiment: In vivo assay: LPS-induced increase in plasma nitrite/nitrate; conditions: Rattus norvegicus; rats, endotoxin (LPS) i.p., oral administration, 5 hours post-treatment; read-out: ED50, inhibition of LPS-induced increase in plasma nitrite/nitrate levels
Description: Plasma nitrite/nitrate levels can be determined 5 hours post-treatment.

[2] = target: T1, human neuronal constitutive NOS (hncNOS) (Homo sapiens, UniProt P29475); experiment: Citrulline assay for nitric oxide synthase, hncNOS; format: biochemical; conditions: recombinant enzyme, 30 μM L-arginine, calmodulin 40-100 nM
T1 construct: made in house; host or cells: Sf9 insect cells (baculovirus vector)
Excerpt: (§1) Nitric oxide synthase (NOS) activity can be measured by monitoring the conversion of L-[2,3-^3H]-arginine to L-[2,3-^3H]-citrulline (Bredt and Snyder, Proc. Natl. Acad. Sci. U.S.A., 87, 682-685, 1990 and Moore et al, J. Med. Chem., 39, 669-672, 1996). Human inducible NOS (hiNOS), human endothelial constitutive NOS (hecNOS) and human neuronal constitutive NOS (hncNOS) are each cloned from RNA extracted from human tissue. The cDNA for human inducible NOS (hiNOS) is isolated from a λcDNA library made from RNA extracted from a colon sample from a patient with ulcerative colitis. The cDNA for human endothelial constitutive NOS (hecNOS) is isolated from a λcDNA library made from RNA extracted from human umbilical vein endothelial cells (HUVEC) and the cDNA for human neuronal constitutive NOS (hncNOS) is isolated from a λcDNA library made from RNA extracted from human cerebellum obtained from a cadaver. The recombinant enzymes are expressed in Sf9 insect cells using a baculovirus vector (Rodi et al, in The Biology of Nitric Oxide, Pt. 4: Enzymology. Biochemistry and Immunology; Moncada, S., Feelisch, M., Busse, R., Higgs, E., Eds.; Portland Press Ltd.: London, 1995; pp 447-450). Enzyme activity is isolated from soluble cell extracts and partially purified by DEAE-Sepharose chromatography. To measure NOS activity, 10 μL of enzyme is added to 40 μL of 50 mM Tris (pH 7.6) in the presence or absence of test compounds and the reaction initiated by the addition of 50 μL of a reaction mixture containing 50 mM Tris (pH 7.6), 2.0 mg/mL bovine serum albumin, 2.0 mM DTT, 4.0 mM CaCl2, 20 μM FAD, 100 μM tetrahydrobiopterin, 0.4 mM NADPH and 60 μM L-arginine containing 0.9 μCi of L-[2,3-^3H]-arginine. The final concentration of L-arginine in the assay is 30 μM. For hecNOS or hncNOS, calmodulin is included at a final concentration of 40-100 nM. […] After mixing the resin is allowed to settle and L-[2,3-^3H]-Citrulline formation is determined by counting aliquots of the supernatant with a liquid scintillation counter. […]

[3] = target: T2, Human inducible NOS (hiNOS) (Homo sapiens, UniProt P35228); experiment: Citrulline assay for nitric oxide synthase, hiNOS; format: biochemical; conditions: recombinant enzyme, 30 μM L-arginine, 37° C. 15 minutes
T2 construct: made in house; host or cells: Sf9 insect cells (baculovirus vector)
Excerpt: as §1

[4] = target: T3, human endothelial constitutive NOS (hecNOS) (Homo sapiens, UniProt P29474); experiment: Citrulline assay for nitric oxide synthase, hecNOS; format: biochemical; conditions: recombinant enzyme, 30 μM L-arginine, calmodulin 40-100 nM
T3 construct: made in house; host or cells: Sf9 insect cells (baculovirus vector)
Excerpt: as §1

IC50 [2] [µM]	IC50 [3] [µM]	IC50 [4] [µM]	SMILES	ED50 [1] [mg/kg]
–	–	–	CC(=N)NC/C(C)=C\CC[C@H](N)C(=O)O [Example 1, (2S,5Z)-2-amino-6-methyl-7-[(1-iminoethyl)amino]-5-heptenoic acid, dihydrochloride]	< 0.1
523	172	1490	CC(=N)NC/C(C)=C/CC[C@H](N)C(=O)O [Example 2, (2S,5E)-2-amino-6-methyl-7-[(1-iminoethyl)amino]-5-heptenoic acid, dihydrochloride]	–
8	0.9	89	CC(=N)NC/C=C\CC[C@H](N)C(=O)O [Example 6, (2S,5Z)-2-amino-7-[(1-iminoethyl)amino]-5-heptenoic acid, dihydrochloride]	–
150	20	418	CC(=N)NC/C=C/CC[C@H](N)C(=O)O [Example 8, (2S,5E)-2-amino-7-[(1-iminoethyl)amino]-5-heptenoic acid, dihydrochloride]	–
